Values of other authors in US20070250270A1, “Cellular predictive models for toxicities” (Cytokinetics, Inc., priority 2006, published 2007).
Starred links: 1 amine or outer side, 2 acyl side, 3 side chain; linkers in the order of their positions; H or OH if unused. Positions of bridges follow the written chain, without caps; N, C: chain ends. Non-standard residues stand in square brackets, D forms with d. Residues, ends and D or L forms follow the SMILES beside them. Trp(2-yl) = O=C([C@H](Cc1c([*:3])[nH]c2ccccc12)N[*:1])[*:2]; Leu(4R-OH,5-OH) = C[C@](O)(CO)C[C@H](N)C(=O)O; cisHyp = O=C(O)[C@@H]1C[C@H](O)CN1

Columns and labels:
[1] = system: filamentous F actin
[2] = system: bile flow; settings: rats

Compound | effect on filamentous F actin around canaliculi and tight junctions [1] | effect on bile flow, resulting in cholestatic injury [2]
C[C@@H]1NC(=O)[C@H](C[C@@](C)(O)CO)NC(=O)[C@@H]2Cc3c([nH]c4ccccc34)SC[C@H](NC(=O)[C@@H]([C@H](C)O)NC1=O)C(=O)N1C[C@@H](O)C[C@H]1C(=O)N[C@@H](C)C(=O)N2 [phalloidin] (cyclo(A[dT]C[cisHyp]A[Trp(2-yl)][Leu(4R-OH,5-OH)]); thioether 3-6) | increase in filamentous F actin around canaliculi and tight junctions | 
C=C1[C@@H](C)[C@H]2[C@H](Cc3ccccc3)NC(=O)[C@]23OC(=O)/C=C/[C@H](O)CCC[C@@H](C)C/C=C/[C@H]3[C@@H]1O [cytochalasin B] |  | prompt arrest of bile flow
